Reference: US20070197523A1, “CALCIUM CHANNEL ANTAGONISTS” (ICAGEN, INC., priority 2005, published 2007)

System: T-type calcium channels
Assay: T-type calcium channel inhibitory activity (fluorometric FLIPR Fluo-4 and whole cell patch clamp)
Type: cell-based, mammalian
Conditions: inhibition of T-type calcium channels; cells natively expressing or HEK-293 cells expressing recombinant channels
Method: T-type calcium channel inhibitory activity of some compounds of the invention was evaluated using both fluorometric as well as electrophysiological measurement methodologies, which are known to those skilled in the art. Fluorescence measurement of changes in intracellular calcium due to entry of calcium through T-type calcium channels was assessed using calcium sensitive fluorescent dyes Fluo-4 and Fluo-3. In brief, cells natively expressing T-type channels or HEK-293 cells transiently or stably expressing recombinant mammalian T-type calcium channels grown in 96-well tissue culture plates in DMEM/High glucose, Hyclone, Fetal Bovine Serum (10%), and 2 mM sodium pyruvate 2 mM (and for cells lines recombinantly expressing T-type calcium channels, G418 @ 400 mg/liter) were loaded with 4 μM Fluo-4 made up in Earls Balanced Salt Solution (EBSS). After incubation for 30 minutes at room temperature, cells were washed with low calcium (0.5 mM) EBSS to remove extracellular Fluo-4. Baseline fluorescence was measured in a FLIPR (FLuorescence Image Plate Reader) (Molecular Devices Inc) after applying test compounds at desired concentration for 5-10 minutes. The effect of test compound on calcium entry was assessed by monitoring changes in Fluo-4 fluorescence following an elevation of extracellular calcium concentration from 0.5 mM to 5 mM. […] Native cells natively expressing T-type channels or HEK-293 cells transiently or stably expressing recombinant mammalian T-type calcium channels were grown in DMEM/High glucose, Hyclone, Fetal Bovine Serum (10%), 2 mM sodium pyruvate 2 mM (and for cells lines recombinantly expressing T-type calcium channels, G418 @ 400 mg/liter) on glass coverslips in 35 mm tissue culture dishes. Experiments were performed by placing T-type calcium channels expressing cells in a recording chamber perfused with EBSS (which contains (in mM): 132 NaCl, 5.4 KCl, 1.8 CaCl2, 0.8 MgCl2, 10 Hepes, 5 glucose, pH 7.4 with NaOH) on the stage of an inverted microscope. Electrical currents were measured using the whole cell configuration of the patch clamp technique (Axopatch 200B, Axon Instruments (Molecular Devices) (see Hamill et al (1981) Pflugers Arch. 1981 391:85-100) using 2-2.5 MOhm resistance glass pipettes filled with 135 CsF, 5 CsCl, 5 NaCl, 5 EGTA, 10 HEPES, pH 7.3 with CsOH, Osmolarity ˜288 mOsm. Test compound effects were typically assessed under conditions in which approximately half of the available channels were inactivated either by an 8 second conditioning depolarization from a holding potential of −100 mV to a potential ranging from −70 mV to −60 mV or by continually holding the membrane potential at −70 mV. Test compounds were assessed for their ability to reduce the amplitude of the inward T-type calcium current elicited by a 100 ms step depolarization −20 or −30 mV.

Molecule | IC50
CCOc1cccc(S(=O)(=O)c2cnc(Nc3cc(C#CCN(C)C(=O)OC(C)(C)C)nc(C)n3)s2)c1 [Example 30, (3-{6-[5-(3-Ethoxy-benzenesulfonyl)-thiazol-2ylamino]-2-methyl-pyrimidin-4-yl}-prop-2-ynyl)-methyl-carbamic acid tert-butyl ester] | 0.001 to 1 µM
CCOc1cccc(S(=O)(=O)c2cnc(Nc3cc(C#CC(C)(C)N(C)C(=O)OC(C)(C)C)nc(C)n3)s2)c1 [Example 31, (3-{6-[5-(3-Ethoxy-benzenesulfonyl)-thiazol-2ylamino]-2-methyl-pyrimidin-4-yl}-1,1-dimethyl-prop-2-ynyl)-methyl-carbamic acid tert-butyl ester] | 0.001 to 1 µM
CCOc1cccc(S(=O)(=O)c2cnc(Nc3cc(CCCOC)nc(C)n3)s2)c1 [Example 32, [5-(3-Ethoxy-benzenesulfonyl)-thiazol-2-yl]-[6-(3-methoxy-propyl)-2-methyl-pyrimidin-4-yl]-amine] | 0.001 to 1 µM
CCOc1cccc(S(=O)(=O)c2cnc(Nc3cc(CCC(C)(C)N)nc(C)n3)s2)c1 [Example 36, [6-(3-Amino-3-methyl-butyl)-2-methyl-pyrimidin-4-yl]-[5-(3-ethoxy-benzenesulfonyl)-thiazol-2yl]-amine] | 0.001 to 1 µM
[5-(3-Ethoxy-benzenesulfonyl)-thiazol-2-yl]-[6-(3-methylamino)propyl)-2-methyl-pyrimidin-4-yl]-amine [Example 35] | 0.001 to 1 µM
